Measurements published in patent publication US20250332178A1, “METHODS OF TREATING MYCOBACTERIAL INFECTIONS USING TETRACYCLINE COMPOUNDS” (priority 2018, published 2025).
Values after ≈ are worked out from the molar mass of the structure shown. Like-named read-outs stand apart in the source and are kept apart here.

Assays:
[1] = test system: M. abscessus; settings: strains of M. abscessus; Wallace et al.; cited from earlier work
[2] = test system: M. arupense; assay: MIC (CLSI broth dilution), slow-growing NTM isolates; type: cell-based; settings: isolate 11, Other
[3] = test system: M. simiae; assay: as above; type: cell-based
[4] = test system: Bacille Calmette Guerin (BCG); type: cell-based, Mycobacterium bovis
[5] = MIC by broth microdilution in CAMHB, clinical isolates; type: cell-based, Mycobacterium chelonae; settings: for MIC: read-out: MIC
[6] = test system: M. abscessus subsp. abscessus CIP 104536; assay: Time-kill kinetics assay; type: cell-based
Procedure: Briefly, M. abscessus cultures were exposed to antimicrobial drugs at 4-fold increasing concentrations for 7 days at 37° C. under shaking conditions at 96 rpm. […] The drug concentrations ranged from 0.063 to 256 mg/L for both compounds. […] At day 1, 3 and 7 during drug exposure, samples were collected, centrifuged at 14000 xg to avoid anti-NTM drug carry over, serially diluted (10-fold, 10^0-10^7) and subcultured onto solid medium. […] The lower limit of detection was 5 cfu/mL (log 0.7). All experiments were performed in duplicate. Time-kill curves, as well as concentration-effect curves were generated.

[7] = Intra-pulmonary steady-state concentrations (plasma, ELF, alveolar cells) after multiple IV doses in healthy adult subjects; type: in vivo, human; settings: human, in vivo
Procedure: The remaining 20 subjects received tigecycline as 1 intravenous dose of 100 mg administered as a 30 minute infusion at t=0, followed by 6 intravenous doses of 50 mg administered as 30 minute infusions at t=12, 24, 36, 48, 60, and 72 hours. A study completion visit was conducted on the day following the final test article dose. There was a final follow-up assessment 7 to 14 days following the subject's last dose of test article which may be completed by telephone contact or other interactive technology unless an examination was needed to evaluate adverse events or abnormalities noted at the study completion visit.
Plasma PK samples were collected pre-dose and at 0.5, 1, 1.5, 2, 3, 4, 6, 8, 12 and 24 hours post-dose on day 4. […] One BAL sample was collected from each subject on day 4. Subjects were randomized to one of the following collection times: 0.5, 1, 2, 4, 8, 12 or 24 hours post-dose.

[8] = Stability of antimicrobial drugs, large-plate agar diffusion assay; type: physicochemical; settings: within the first 24 hours
Procedure: Antimicrobial activity over time was assessed using the standard large-plate agar diffusion assay as previously described in detail (Bennett et al., Appl. Microbiol. 1966, 14 (2): 170-7). In short, a Staphylococcus aureus strain susceptible to omadacycline and a Micrococcus luteus strain susceptible to tigecycline were plated onto solid diagnostic sensitivity test (D.S.T.) agar (Oxoid, Hampshire, UK). A two-fold increasing standard concentration series was prepared.

[9] = test system: slow-growing NTM isolates; assay: MIC (CLSI broth dilution), all slow-growing NTM isolates; type: cell-based, nontuberculous mycobacteria
[10] = test system: M. avium; assay: MIC (CLSI broth dilution), slow-growing NTM isolates; type: cell-based
[11] = Alveolar Macrophages (AM) concentration (mean ± SD)
[12] = Epithelial lining fluid (ELF) concentration (mean ± SD)
[13] = Plasma concentration (mean ± SD)
[14] = Ratio of Omadacycline Concentrations in Alveolar Cells to Plasma (Mean, SD)
[15] = Ratio of Omadacycline Concentrations in Epithelial Lining Fluid to Plasma (Mean, SD)

## C[C@H]1c2cccc(O)c2C(=O)C2=C(O)[C@]3(O)C(=O)C(C(N)=O)=C(O)[C@@H](N(C)C)[C@@H]3[C@@H](O)[C@@H]21 [Doxycycline, doxycycline]
[1]
  in vitro activity (in words): very low activity
[2]
  MIC: 16 µg/mL (≈ 36 µM)
[3]; isolate 13, Other
  MIC: >16 µg/mL
[3]; isolate 14, Other
  MIC: >16 µg/mL
[3]; isolate 15, Other
  MIC: >16 µg/mL

## CC[C@H]1OC(=O)[C@H](C)[C@@H](O[C@H]2C[C@@](C)(OC)[C@@H](O)[C@H](C)O2)[C@H](C)[C@@H](O[C@@H]2O[C@H](C)C[C@H](N(C)C)[C@H]2O)[C@](C)(OC)C[C@@H](C)C(=O)[C@H](C)[C@@H](O)[C@]1(C)O [clarithromycin]
[4]; disk: 15 μg of clarithromycin
  clear zone: 45 mm clear zone

## CN(C)c1cc(CNCC(C)(C)C)c(O)c2c1C[C@H]1C[C@H]3C(N(C)C)C(O)=C(C(N)=O)C(=O)[C@@]3(O)C(O)=C1C2=O (stereo partly drawn) [Omadacycline, (4aS,5aR,12aS)-4,7-bis(dimethylamino)-3,10,12,12a-tetrahydroxy-9-((neopentylamino)methyl)-1,11-dioxo-1,4,4a,5,5a,6,11,12a-octahydrotetracene-2-carboxamide]
[5]; 22 clinical isolates, read-out: MIC90
  MIC90: 0.25 µg/mL (≈ 0.449 µM)
[5]; isolate No. 1, MC 7323
  MIC: 0.125 µg/mL (≈ 0.225 µM)
[5]; isolate No. 2, MC 7534
  MIC: 0.03 µg/mL (≈ 0.0539 µM)
[5]; isolate No. 3, MC 7368
  MIC: 0.03 µg/mL (≈ 0.0539 µM)
[5]; isolate No. 4, MC 7514
  MIC: 0.06 µg/mL (≈ 0.108 µM)
[5]; isolate No. 5, MC 7584
  MIC: 0.06 µg/mL (≈ 0.108 µM)
[5]; isolate No. 6, MC 7192
  MIC: 0.015 µg/mL (≈ 0.0269 µM)
[5]; isolate No. 7, MC 7466
  MIC: 0.03 µg/mL (≈ 0.0539 µM)
[5]; isolate No. 8, MC 7533
  MIC: 0.25 µg/mL (≈ 0.449 µM)
[5]; isolate No. 9, MC 7579
  MIC: 0.125 µg/mL (≈ 0.225 µM)
[5]; isolate No. 10, MC 7614
  MIC: 0.125 µg/mL (≈ 0.225 µM)
[5]; isolate No. 11, MC 7414
  MIC: 0.125 µg/mL (≈ 0.225 µM)
[5]; isolate No. 12, MC 7313
  MIC: 0.125 µg/mL (≈ 0.225 µM)
[5]; isolate No. 13, MC 7281
  MIC: 0.25 µg/mL (≈ 0.449 µM)
[5]; isolate No. 14, MC 7328
  MIC: 0.015 µg/mL (≈ 0.0269 µM)
[5]; isolate No. 15, MC 7294
  MIC: 0.25 µg/mL (≈ 0.449 µM)
[5]; isolate No. 16, MC 14-S-03
  MIC: 0.06 µg/mL (≈ 0.108 µM)
[5]; isolate No. 17, MC 14-S-04
  MIC: 0.06 µg/mL (≈ 0.108 µM)
[5]; isolate No. 18, MC 14-S-05
  MIC: 0.125 µg/mL (≈ 0.225 µM)
[5]; isolate No. 19, MC 14-S-06
  MIC: 0.03 µg/mL (≈ 0.0539 µM)
[5]; isolate No. 20, MC 14-S-07
  MIC: 0.06 µg/mL (≈ 0.108 µM)
[5]; isolate No. 21, MC 35757
  MIC: 0.125 µg/mL (≈ 0.225 µM)
[5]; isolate No. 22, MC 7302
  MIC: 0.25 µg/mL (≈ 0.449 µM)
[6]; after 7 days of exposure
  concentration for 1 log mycobacterial killing: 4.0 mg/L
  concentration for 2 log mycobacterial killing: 4.8 mg/L
  concentration for stasis (concentration-effect curve): 3.3 mg/L
[6]; time-kill, at day 3-7
  concentrations achieving elimination: no elimination was achieved
[6]; time-kill, up to 7 days exposure
  concentration showing inhibition of mycobacterial growth: 4 mg/L
[7]
  Free-drug AUC72-96, Plasma (Median): 9610 ng·h/mL
[7]; AUCmean, Alveolar Cells (AC)
  AUC: 302000 ng·h/mL
[7]; AUCmean, Epithelial Lining Fluid (ELF)
  AUC: 17200 ng·h/mL
[7]; AUCmean, Plasma
  AUC: 11700 ng·h/mL
[7]; AUCmedian, Alveolar Cells (AC)
  AUC: 292000 ng·h/mL
[7]; AUCmedian, Epithelial Lining Fluid (ELF)
  AUC: 16700 ng·h/mL
[7]; AUCmedian, Plasma
  AUC: 11800 ng·h/mL
[7]; [11]
  concentration at 0.5 h: 14300 ± 9300 ng/mL
  concentration at 1 h: 12800 ± 8480 ng/mL
  concentration at 2 h: 10800 ± 7590 ng/mL
  concentration at 4 h: 18000 ± 7170 ng/mL
  concentration at 8 h: 12300 ± 4700 ng/mL
  concentration at 12 h: 12300 ± 4610 ng/mL
  concentration at 24 h: 10400 ± 4040 ng/mL
[7]; [12]
  concentration at 0.5 h: 1730 ± 1010 ng/mL
  concentration at 1 h: 2250 ± 720 ng/mL
  concentration at 2 h: 1510 ± 940 ng/mL
  concentration at 4 h: 950 ± 330 ng/mL
  concentration at 8 h: 580 ± 190 ng/mL
  concentration at 12 h: 610 ± 290 ng/mL
  concentration at 24 h: 410 ± 130 ng/mL
[7]; Penetration Ratio: total-drug ELF AUC72-96 to free-drug plasma AUC72-96 (Median)
  Kp: 1.93
[7]; Penetration ratio AC:Plasma based on AUCmean
  Kp: 25.8
[7]; Penetration ratio AC:Plasma based on AUCmedian
  Kp: 24.8
[7]; Penetration ratio ELF:Plasma based on AUCmean
  Kp: 1.47
[7]; Penetration ratio ELF:Plasma based on AUCmedian
  Kp: 1.42
[7]; [13]
  concentration at 0.5 h: 1800 ng/mL
  concentration at 1 h: 890 ng/mL
  concentration at 2 h: 930 ng/mL
  concentration at 4 h: 590 ng/mL
  concentration at 8 h: 560 ng/mL
  concentration at 12 h: 420 ng/mL
  concentration at 24 h: 270 ng/mL
[7]; [14]
  Kp at 0.5 h: 8.12 ± 5.95
  Kp at 1 h: 13.8 ± 7.38
  Kp at 2 h: 12.3 ± 6.57
  Kp at 4 h: 34.7 ± 15.1
  Kp at 8 h: 23.1 ± 11.2
  Kp at 12 h: 29 ± 8.78
  Kp at 24 h: 40.3 ± 10.3
[7]; [15]
  Kp at 0.5 h: 0.95 ± 0.56
  Kp at 1 h: 2.72 ± 1.26
  Kp at 2 h: 1.5 ± 0.61
  Kp at 4 h: 1.79 ± 0.49
  Kp at 8 h: 1.07 ± 0.45
  Kp at 12 h: 1.44 ± 0.57
  Kp at 24 h: 1.65 ± 0.86
[7]; Total-drug AUC72-96, ELF (Median)
  AUC: 18500 ng·h/mL
[7]; concentration in epithelial lining fluid relative to plasma
  Kp: > 1.4
[7]; iv, 100 mg
  Cmax: 2260 ± 760 ng/mL
  Vd: 165 ± 58 L
[7]; mean concentration in alveolar cells relative to plasma
  Kp: ~25
[7]; mean concentration in epithelial lining fluid higher than in plasma
  Kp: ≥ 0.4
[8]
  decline in concentration: 20%
[4]; disk: 15 μg of omadacycline
  Results/Observations (growth): Markedly decreased growth around
[9]; small number of SGM isolates
  activity against SGM isolates (in words): MIC values above the highest concentration evaluated

## NCC[C@H](O)C(=O)N[C@@H]1C[C@H](N)[C@@H](O[C@H]2O[C@H](CN)[C@@H](O)[C@H](O)[C@H]2O)[C@H](O)[C@H]1O[C@H]1O[C@H](CO)[C@@H](O)[C@H](N)[C@H]1O [Amikacin, amikacin]
[10]; isolate 1, MAC
  MIC: 32 µg/mL (≈ 54.6 µM)
[10]; isolate 2, MAC
  MIC: 16 µg/mL (≈ 27.3 µM)
[10]; isolate 3, MAC
  MIC: 8 µg/mL (≈ 13.7 µM)
[2]
  MIC: 8 µg/mL (≈ 13.7 µM)
[9]; all slow-growing NTM isolates
  MIC50: 16 µg/mL (≈ 27.3 µM)
  MIC90: 32 µg/mL (≈ 54.6 µM)
[3]; isolate 13, Other
  MIC: 32 µg/mL (≈ 54.6 µM)
[3]; isolate 14, Other
  MIC: 16 µg/mL (≈ 27.3 µM)
[3]; isolate 15, Other
  MIC: 16 µg/mL (≈ 27.3 µM)
